Values quoted from earlier work as cited in publication PMC10425210 (The Journal of Clinical Investigation, 2023).

What was measured:
SHIV109CP3 = test system: SHIV109CP3; design: method as in PMID 31175822; details: cited from earlier work
[1] = design: method as in PMID 29008798; details: cited from earlier work

In the case of C#C[C@]1(CO)O[C@@H](n2cnc3c(N)nc(F)nc32)C[C@@H]1O [islatravir], the prevention of infection (SHIV109CP3) is listed as “proven efficacy at preventing infection” and the “adverse finding during clinical development” value [1] is listed as “unanticipated lymphopenia”.
